{
  "source": "patent US7109380B2",
  "about": "“Cyclopentenedione antifungal compounds and methods for their use” (The University of Mississippi, priority 2004, dated 2006)",
  "experiment_in_all_cases": "96-well microtiter fungal growth assay;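 as to Mean percent fungal growth inhibition of Botrytis cinerea: percent relative to untreated positive growth controls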;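 as to Mean percent fungal growth inhibition of Colletotrichum acutatum: percent relative to untreated positive growth controls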;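 as to Mean percent fungal growth inhibition of Colletotrichum fragariae: percent relative to untreated positive growth controls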;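 as to Mean percent fungal growth inhibition of Colletotrichum gloeosporoides: percent relative to untreated positive growth controls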;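 as to Mean percent fungal growth inhibition of Fusarium oxysporum: percent relative to untreated positive growth controls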;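 as to Mean percent fungal growth inhibition of Phomopsis viticola: percent relative to untreated positive growth controls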",
  "format_in_all_cases": "cell-based",
  "key": {"Phomopsis obscurans": {"tested_on": "Phomopsis obscurans", "text": "(§1) Pathogen collection. Isolates of Colletotrichum acutatum Simmonds, Colletotrichum fragariae Brooks, and Colletotrichum gloeosporioides (Penz.) Penz. & Sacc. in Penz. were obtained from B. J. Smith, USDA, ARS, Small Fruit Research Station, Poplarville, Mass. Colletotrichum fragariae (isolate CF63), C. acutatum (isolate CAGoff), and C. gloeosporioides (isolate CG162) were used for all pathogen and bioautography studies. Isolate CF63 is one of the most virulent isolates at infecting strawberry plants and inducing both crown and fruit rot (Smith and Black, 1990). CF63, CAGoff, and CG162 were used as standard test isolates because of our extensive knowledge of these isolates and their known fungicide sensitivity profiles in both bioautography and microtiter formats. The three Colletotrichum species were isolated from strawberry (Fragaria xananassa Duchesne). Botrytis cinerea Pers.:Fr, was isolated from commercial grape (Vitis vinifera L.) and Fusarium oxysporum Schlechtend:Fr from orchid (Cynoches sp.) by David E. Wedge, USDA ARS Natural Products Utilization Research Unit. Phomopsis viticola (Sacc.) and P. obscurans (Ellis & Everh.) Sutton were from Mike A. Ellis, Ohio State University, Wooster, Ohio. Fungi were grown on potato-dextrose agar (PDA, Difco, Detroit Mich.) in 9 cm petri dishes and incubated in a growth chamber at 24±2° C. and under cool-white fluorescent lights ([…]·m^−2·sec^−1 light) with 12-h photoperiod.\n(§2) Inoculum preparation. Conidia were harvested from 7–10 day-old cultures by flooding plates with 5 mL of sterile distilled water and dislodging conidia by softly brushing the colonies with an L-shaped glass rod. Conidial suspensions were filtered through sterile miracloth (Calbiochem-Novabiochem Corp., La Jolla Calif.) to remove mycelia. Conidia concentrations were determined photometrically, from a standard curve based on the absorbance at 625 nm and suspensions were then adjusted with sterile distilled water to a concentration of 1.0×10^6 conidia/mL.\n(§3) Microtiter assay. A standardized 96-well microtiter plate assay developed for discovery of natural product fungicidal agents. A 96-well microtiter assay was used to determine sensitivity of B. cinerea, C. acutatum, C. fragariae, C. gloeosporioides, F. oxysporum, Phomopsis viticola, and P. obscurans to the various antifungal agents in comparison with known fungicidal standards. Vinclozolin, captan, and thiabendazole, which represent three different modes of action, were used as standards in this experiment. Each fungus was challenged in a dose-response format using test compounds where the final treatment concentrations were 0.3, 3.0 and 30.0 μM. Microtiter plates (Nunc MicroWell, untreated; Roskilde, Denmark) were covered with a plastic lid and incubated in a growth chamber at 24±1 C and 12 h photoperiod under 60±5 μmol light. Growth was then evaluated by measuring absorbance of each well at 620 nm using a microplate photometer (Packard Spectra Count, Packard Instrument Co., Downers Grove, Ill.).\n(§4) Microbioassay Experimental Design. Chemical sensitivity of each fungus 96-well microtiter assay is used to determine sensitivity of B. cinerea, C. acutatum, C. fragariae, C. gloeosporioides, F. oxysporum, Phomopsis viticola, and P. obscurans. Each chemical is evaluated in duplicate at each dose (0.3, 3.0 and 30.0 μM) and repeated twice in time. Sixteen wells containing broth and inoculum serves as positive controls, eight wells containing solvent at the appropriate concentration and broth without inoculum are used as negative controls. […] Treatments are arranged as a split-plot design replicated twice in time. Whole-plots were fungal isolates and sub-plots are chemicals. Each dose level and response time is analyzed separately. The SAS system's analysis of variance procedure (Statistical Analysis System, Cary, N.C.) is used to identify significant factors and Fisher's protected LSD is used to separate means."}, "Phomopsis viticola": {"tested_on": "Phomopsis viticola", "text": "as §1, §2, §3, §4"}, "Colletotrichum fragariae": {"tested_on": "Colletotrichum fragariae", "text": "as §1, §2, §3\nas §4, with “controls. Mean absorbance values and standard errors is used to evaluate fungal growth at 48 hrs and 72 hrs except for P. obscurans and P. viticola the data are recorded at 120 hrs.” for “controls.”, “The SAS system's analysis of variance procedure (Statistical Analysis System, Cary, N.C.) is used to identify significant factors and Fisher's protected LSD is used to separate means.” left out"}, "Botrytis cinerea": {"tested_on": "Botrytis cinerea", "text": "as §1, §2, §3\nas §4, with “controls. Mean absorbance values and standard errors is used to evaluate fungal growth at 48 hrs and 72 hrs except for P. obscurans and P. viticola the data are recorded at 120 hrs.” for “controls.”, “The SAS system's analysis of variance procedure (Statistical Analysis System, Cary, N.C.) is used to identify significant factors and Fisher's protected LSD is used to separate means.” left out"}, "[1]": {"tested_on": "Colletotrichum gloeosporioides", "text": "as §1, §2, §3\nas §4, with “controls. Mean absorbance values and standard errors is used to evaluate fungal growth at 48 hrs and 72 hrs except for P. obscurans and P. viticola the data are recorded at 120 hrs.” for “controls.”, “The SAS system's analysis of variance procedure (Statistical Analysis System, Cary, N.C.) is used to identify significant factors and Fisher's protected LSD is used to separate means.” left out"}, "Colletotrichum acutatum": {"tested_on": "Colletotrichum acutatum", "text": "as §1, §2, §3\nas §4, with “controls. Mean absorbance values and standard errors is used to evaluate fungal growth at 48 hrs and 72 hrs except for P. obscurans and P. viticola the data are recorded at 120 hrs.” for “controls.”, “The SAS system's analysis of variance procedure (Statistical Analysis System, Cary, N.C.) is used to identify significant factors and Fisher's protected LSD is used to separate means.” left out"}, "Fusarium oxysporum": {"tested_on": "Fusarium oxysporum", "text": "as §1, §2, §3\nas §4, with “controls. Mean absorbance values and standard errors is used to evaluate fungal growth at 48 hrs and 72 hrs except for P. obscurans and P. viticola the data are recorded at 120 hrs.” for “controls.”, “The SAS system's analysis of variance procedure (Statistical Analysis System, Cary, N.C.) is used to identify significant factors and Fisher's protected LSD is used to separate means.” left out"}},
  "data": [
    {"smiles": "CO/C=C(/C(=O)OC)c1ccccc1Oc1cc(Oc2ccccc2C#N)ncn1", "note": "[Azoxystrobin]", "values": [
      {"measurement": "Percent change in fungal growth vs control (negative = inhibition)", "setting": "Phomopsis obscurans; 0.3 μm, 120 hrs", "result": "−73.2 ± 6.7", "unit": "%"},
      {"measurement": "Percent change in fungal growth vs control (negative = inhibition)", "setting": "Phomopsis obscurans; 0.3 μm, 144 hrs", "result": "−70.2 ± 7.0", "unit": "%"},
      {"measurement": "Percent change in fungal growth vs control (negative = inhibition)", "setting": "Phomopsis obscurans; 3.0 μm, 120 hrs", "result": "−90.9 ± 6.5", "unit": "%"},
      {"measurement": "Percent change in fungal growth vs control (negative = inhibition)", "setting": "Phomopsis obscurans; 3.0 μm, 144 hrs", "result": "−87.5 ± 5.3", "unit": "%"},
      {"measurement": "Percent change in fungal growth vs control (negative = inhibition)", "setting": "Phomopsis obscurans; 30 μm, 120 hrs", "result": "−99.3 ± 0.5", "unit": "%"},
      {"measurement": "Percent change in fungal growth vs control (negative = inhibition)", "setting": "Phomopsis obscurans; 30 μm, 144 hrs", "result": "−98.2 ± 0.6", "unit": "%"},
      {"measurement": "Mean percent fungal growth inhibition of Phomopsis viticola", "setting": "Phomopsis viticola; 0.3 μm, 120 hrs", "result": "−29.5 ± 45.0", "unit": "%"},
      {"measurement": "Mean percent fungal growth inhibition of Phomopsis viticola", "setting": "Phomopsis viticola; 0.3 μm, 144 hrs", "result": "−73.4 ± 16.0", "unit": "%"},
      {"measurement": "Mean percent fungal growth inhibition of Phomopsis viticola", "setting": "Phomopsis viticola; 3.0 μm, 120 hrs", "result": "−124.5 ± 33.0", "unit": "%"},
      {"measurement": "Mean percent fungal growth inhibition of Phomopsis viticola", "setting": "Phomopsis viticola; 30 μm, 120 hrs", "result": "−154.1 ± 39.4", "unit": "%"},
      {"measurement": "Mean percent fungal growth inhibition of Phomopsis viticola", "setting": "Phomopsis viticola; 30 μm, 144 hrs", "result": "−97.9 ± 1.3", "unit": "%"},
      {"measurement": "Mean percent fungal growth inhibition of Colletotrichum fragariae", "setting": "Colletotrichum fragariae; 0.3 μm, 48 hrs", "result": "−68.8 ± 4.0", "unit": "%"},
      {"measurement": "Mean percent fungal growth inhibition of Colletotrichum fragariae", "setting": "Colletotrichum fragariae; 0.3 μm, 72 hrs", "result": "−33.5 ± 17.4", "unit": "%"},
      {"measurement": "Mean percent fungal growth inhibition of Colletotrichum fragariae", "setting": "Colletotrichum fragariae; 3.0 μm, 48 hrs", "result": "−78.9 ± 4.4", "unit": "%"},
      {"measurement": "Mean percent fungal growth inhibition of Colletotrichum fragariae", "setting": "Colletotrichum fragariae; 3.0 μm, 72 hrs", "result": "−80.6 ± 4.8", "unit": "%"},
      {"measurement": "Mean percent fungal growth inhibition of Colletotrichum fragariae", "setting": "Colletotrichum fragariae; 30 μm, 48 hrs", "result": "−82.0 ± 4.9", "unit": "%"},
      {"measurement": "Mean percent fungal growth inhibition of Colletotrichum fragariae", "setting": "Colletotrichum fragariae; 30 μm, 72 hrs", "result": "−86.4 ± 4.5", "unit": "%"},
      {"measurement": "Mean percent fungal growth inhibition of Botrytis cinerea", "setting": "Botrytis cinerea; 0.3 μm, 48 hrs", "result": "−30.4 ± 40.8", "unit": "%"},
      {"measurement": "Mean percent fungal growth inhibition of Botrytis cinerea", "setting": "Botrytis cinerea; 0.3 μm, 72 hrs", "result": "−67.3 ± 7.6", "unit": "%"},
      {"measurement": "Mean percent fungal growth inhibition of Botrytis cinerea", "setting": "Botrytis cinerea; 3.0 μm, 48 hrs", "result": "−45.8 ± 32.5", "unit": "%"},
      {"measurement": "Mean percent fungal growth inhibition of Botrytis cinerea", "setting": "Botrytis cinerea; 3.0 μm, 72 hrs", "result": "−79.8 ± 3.6", "unit": "%"},
      {"measurement": "Mean percent fungal growth inhibition of Botrytis cinerea", "setting": "Botrytis cinerea; 30 μm, 48 hrs", "result": "−58.3 ± 26.5", "unit": "%"},
      {"measurement": "Mean percent fungal growth inhibition of Botrytis cinerea", "setting": "Botrytis cinerea; 30 μm, 72 hrs", "result": "−89.1 ± 2.1", "unit": "%"},
      {"measurement": "Mean percent fungal growth inhibition of Colletotrichum gloeosporoides", "setting": "[1]; 0.3 μm, 48 hrs", "result": "−91.2 ± 2.1", "unit": "%"},
      {"measurement": "Mean percent fungal growth inhibition of Colletotrichum gloeosporoides", "setting": "[1]; 0.3 μm, 72 hrs", "result": "−71.0 ± 1.4", "unit": "%"},
      {"measurement": "Mean percent fungal growth inhibition of Colletotrichum gloeosporoides", "setting": "[1]; 3.0 μm, 48 hrs", "result": "−96.3 ± 0.9", "unit": "%"},
      {"measurement": "Mean percent fungal growth inhibition of Colletotrichum gloeosporoides", "setting": "[1]; 3.0 μm, 72 hrs", "result": "−87.6 ± 2.0", "unit": "%"},
      {"measurement": "Mean percent fungal growth inhibition of Colletotrichum gloeosporoides", "setting": "[1]; 30 μm, 48 hrs", "result": "−97.7 ± 0.5", "unit": "%"},
      {"measurement": "Mean percent fungal growth inhibition of Colletotrichum gloeosporoides", "setting": "[1]; 30 μm, 72 hrs", "result": "−89.8 ± 1.1", "unit": "%"},
      {"measurement": "Mean percent fungal growth inhibition of Colletotrichum acutatum", "setting": "Colletotrichum acutatum; 0.3 μm, 48 hrs", "result": "−75.1 ± 1.8", "unit": "%"},
      {"measurement": "Mean percent fungal growth inhibition of Colletotrichum acutatum", "setting": "Colletotrichum acutatum; 0.3 μm, 72 hrs", "result": "−46.0 ± 1.4", "unit": "%"},
      {"measurement": "Mean percent fungal growth inhibition of Colletotrichum acutatum", "setting": "Colletotrichum acutatum; 3.0 μm, 48 hrs", "result": "−89.2 ± 1.8", "unit": "%"},
      {"measurement": "Mean percent fungal growth inhibition of Colletotrichum acutatum", "setting": "Colletotrichum acutatum; 3.0 μm, 72 hrs", "result": "−77.4 ± 1.6", "unit": "%"},
      {"measurement": "Mean percent fungal growth inhibition of Colletotrichum acutatum", "setting": "Colletotrichum acutatum; 30 μm, 48 hrs", "result": "−94.3 ± 1.1", "unit": "%"},
      {"measurement": "Mean percent fungal growth inhibition of Colletotrichum acutatum", "setting": "Colletotrichum acutatum; 30 μm, 72 hrs", "result": "−84.1 ± 0.8", "unit": "%"},
      {"measurement": "Mean percent fungal growth inhibition of Fusarium oxysporum", "setting": "Fusarium oxysporum; 0.3 μm, 48 hrs", "result": "−13.0 ± 6.0", "unit": "%"},
      {"measurement": "Mean percent fungal growth inhibition of Fusarium oxysporum", "setting": "Fusarium oxysporum; 0.3 μm, 72 hrs", "result": "3.8 ± 3.6", "unit": "%"},
      {"measurement": "Mean percent fungal growth inhibition of Fusarium oxysporum", "setting": "Fusarium oxysporum; 3.0 μm, 48 hrs", "result": "−66.4 ± 1.4", "unit": "%"},
      {"measurement": "Mean percent fungal growth inhibition of Fusarium oxysporum", "setting": "Fusarium oxysporum; 3.0 μm, 72 hrs", "result": "−40.1 ± 3.5", "unit": "%"},
      {"measurement": "Mean percent fungal growth inhibition of Fusarium oxysporum", "setting": "Fusarium oxysporum; 30 μm, 48 hrs", "result": "−87.3 ± 0.6", "unit": "%"},
      {"measurement": "Mean percent fungal growth inhibition of Fusarium oxysporum", "setting": "Fusarium oxysporum; 30 μm, 72 hrs", "result": "−64.6 ± 0.8", "unit": "%"}
    ]}
  ]
}
